System: articular chondrocytes and TC28 cells
Experiment: Intracellular ATP, statements covering both cell preparations
Format: cell-based, human
Conditions: for depletion of intracellular ATP levels: 0.025 mM antimycin A or 0.02 μM oligomycin, administered every 24 hours for 72 hours; for intracellular ATP levels (qualitative): SIN-1 500 μM, NOC-12 250 μM, antimycin A and oligomycin concentration not stated; for effect on TGFβ-induced increase of intracellular ATP: antimycin A 0.025 mM or oligomycin 0.02 μM additionally present
Procedure: Levels of total cellular ATP were measured by a modification of luciferase-based assays known in the art (Lin et al., Anal. Biochem. 24:531–540, 1968); related assays and modifications may alternatively be used (see, e.g., Turman et al., In Vitro Cell. Dev. Biol. Anim. 32:1–4, 1996, for an assay format that uses a fluorescent plate reader). In brief, 2×10^6 cells were washed and pelleted in 10 ml phosphate-buffered saline (PBS). The cell pellets were snap-frozen in a dry ice/ethanol bath, after which […] of 0.2 M HCl was added, followed by 0.3 ml of 2 mM glycine (pH 9.0). Samples were heated at 100° C. for five minutes, then placed on ice. A standard curve was developed using 0 to 500 pmol of purified ATP (disodium salt). One hundred (100) μl of the cell extract, or purified ATP standard, was added to an equal volume of the ATP assay mixture (containing MgSO4, DTT, EDTA, luciferase and luciferin, all from the Sigma Bioluminescence Assay Kit and all diluted 1:25). Following a 5 second incubation and 15 second integration, samples were read on a TD-20/20 Luminometer (Turner Designs, Sunnyvale, Calif.).
In FIG. 1A, articular chondrocytes or TC28 cells (5×10^5) in 5 ml were studied in triplicate in the presence of antimycin (or oligomycin, see next Example) at the indicated concentrations, administered every 24 hours for a total of 72 hours, and total intracellular ATP concentrations were determined as described above. Viability determinations are shown in FIG. 1B, where 2×10^4 chondrocytes or TC28 cells in 0.2 ml were cultured in triplicate in the presence of antimycin (or oligomycin) at the indicated concentrations, administered every 24 hours for a total of 72 hours, and cell viability was determined by trypan blue dye exclusion (>200 cells counted for each replicate).

Row | Compound | depletion of intracellular ATP levels | intracellular ATP levels (qualitative) | effect on TGFβ-induced increase of intracellular ATP
1 | CC[C@H]1/C=C/C=C/C[C@@H](C)[C@H](O)[C@@](C)(O)C(=O)[C@@H](C)[C@H](O)[C@@H](C)C(=O)[C@@H](C)[C@H](O)[C@@H](C)/C=C/C(=O)O[C@@H]2[C@H](C)[C@H](CC1)O[C@]1(CC[C@H](C)[C@H](C[C@@H](C)O)O1)[C@H]2C [oligomycin] | 50–80% | depressed intracellular ATP levels | this effect was blocked
2 | antimycin A | 50–80% | depressed intracellular ATP levels | this effect was blocked
